From ChEMBL document CHEMBL1201862, “PubChem BioAssay data set” (2004)
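Values below derive from 48-hour exposures of cells grown in 96-well plates, with endpoints linearly interpolated between the two concentrations bracketing the appropriate inhibition level. GI50 marks 50% less growth.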 Activity calls are given as the source filed them. No stated cut-off is given here; in the data, active = GI50 up to about 1.1 µM and inactive = higher.

Key:
Experiment in all cases: growth of human tumour cells (NCI), 48 h
NCI-H226 = tested on: NCI-H226
T47D = tested on: T47D
SNB-19 = tested on: SNB-19
RPMI-8226 = tested on: RPMI-8226
DU-145 = tested on: DU-145
CCRF-CEM = tested on: CCRF-CEM
A549 = tested on: A549
RXF 393 = tested on: RXF 393
SNB-75 = tested on: SNB-75
UACC-257 = tested on: UACC-257
SF-268 = tested on: SF-268
Malme-3M = tested on: Malme-3M
UACC-62 = tested on: UACC-62
OVCAR-4 = tested on: OVCAR-4
MOLT-4 = tested on: MOLT-4
K562 = tested on: K562
SNB-78 = tested on: SNB-78
HOP-18 = tested on: HOP-18
M19-MEL = tested on: M19-MEL
XF498 = tested on: XF498

Row | SMILES | GI50 (NCI-H226) | GI50 (T47D) | GI50 (SNB-19) | GI50 (RPMI-8226) | GI50 (DU-145) | GI50 (CCRF-CEM) | GI50 (A549) | GI50 (RXF 393) | GI50 (SNB-75) | GI50 (UACC-257) | GI50 (SF-268) | GI50 (Malme-3M) | GI50 (UACC-62) | GI50 (OVCAR-4) | GI50 (MOLT-4) | GI50 (K562) | GI50 (SNB-78) | GI50 (HOP-18) | GI50 (M19-MEL) | GI50 (XF498)
1 | COC(=O)c1cc2c(n1S(=O)(=O)c1ccc(C)cc1)C(=O)C(=O)c1[nH]cc(C(=O)OCc3ccccc3)c1-2 | 0.199 µM (active) | 0.216 µM (active) | 0.191 µM (active) | 0.0883 µM (active) | 0.138 µM (active) | 0.0873 µM (active) | 0.183 µM (active) | 0.0973 µM (active) | 0.147 µM (active) | 0.0322 µM (active) | 0.221 µM (active) | 0.0321 µM (active) | 0.0555 µM (active) | 0.209 µM (active) | 0.0647 µM (active) | 0.0439 µM (active) | – | – | – | –
2 | C[n+]1cn(CC(=O)c2ccccc2)c(C(N)=O)c1N | > 100 µM (inactive) | – | > 100 µM (inactive) | 45.1 µM (inactive) | – | > 100 µM (inactive) | > 100 µM (inactive) | – | > 100 µM (inactive) | > 100 µM (inactive) | > 100 µM (inactive) | > 100 µM (inactive) | > 100 µM (inactive) | > 100 µM (inactive) | > 100 µM (inactive) | > 10 µM (inactive) | > 100 µM (inactive) | > 100 µM (inactive) | 25.2 µM (inactive) | –
3 | O/N=C1\C(=C\c2ccc3c(c2)OCCO3)CCCC1C(NO)c1ccc2c(c1)OCCO2 (stereo not given) | – | – | 38.7 µM (inactive) | 16.3 µM (inactive) | – | 16.6 µM (inactive) | 25.2 µM (inactive) | 25.8 µM (inactive) | 28.7 µM (inactive) | 20.4 µM (inactive) | 18.2 µM (inactive) | 25.4 µM (inactive) | 16.5 µM (inactive) | 30.1 µM (inactive) | 10.1 µM (inactive) | – | 33.9 µM (inactive) | 43.4 µM (inactive) | 24.9 µM (inactive) | –
4 | CN(C)C=C1C(Cl)=C(C=O)CC(C=O)=C1Cl | – | – | 14.3 µM (inactive) | 2.39 µM (inactive) | – | 2.5 µM (inactive) | 86.9 µM (inactive) | 6.21 µM (inactive) | 15.4 µM (inactive) | 14.9 µM (inactive) | 8.17 µM (inactive) | 10.4 µM (inactive) | 15.1 µM (inactive) | 14.4 µM (inactive) | 2.54 µM (inactive) | 3.03 µM (inactive) | – | 13.3 µM (inactive) | 11.4 µM (inactive) | –
5 | COC(=O)/C(=N/O)C(C(=O)C=C(C)C)C(=O)C(=O)Nc1nc2ccc([N+](=O)[O-])cc2s1 (stereo not given) | 23.6 µM (inactive) | – | 67.9 µM (inactive) | 27.9 µM (inactive) | – | 24.7 µM (inactive) | 30.8 µM (inactive) | – | – | 44.6 µM (inactive) | 28.3 µM (inactive) | 27.5 µM (inactive) | 32.6 µM (inactive) | 31.8 µM (inactive) | 23.9 µM (inactive) | 28.9 µM (inactive) | 27.7 µM (inactive) | – | > 100 µM (inactive) | 58.7 µM (inactive)
6 | COc1cc2cc(C(=O)N3CC(CCl)c4ccc([N+](C)(C)Cc5ccccc5[N+](=O)[O-])cc43)[nH]c2c(OC)c1OC (stereo not given) | 1.48 µM (inactive) | 2.31 µM (inactive) | 2.36 µM (inactive) | 1.3 µM (inactive) | 1.53 µM (inactive) | 0.966 µM (active) | 0.314 µM (active) | 0.652 µM (active) | 4.09 µM (inactive) | 1.66 µM (inactive) | 1.71 µM (inactive) | 1.73 µM (inactive) | 1.01 µM (active) | 2.41 µM (inactive) | 0.63 µM (active) | 1.71 µM (inactive) | – | – | – | –
7 | C=C[C@@]1(O)CCCC[C@@H]1CC(Sc1ccccc1)Sc1ccccc1 | 21.8 µM (inactive) | 11.1 µM (inactive) | 18 µM (inactive) | 27.5 µM (inactive) | 17.7 µM (inactive) | 30.6 µM (inactive) | 15.9 µM (inactive) | 14.9 µM (inactive) | 13.7 µM (inactive) | 17.4 µM (inactive) | 15.5 µM (inactive) | 14.6 µM (inactive) | 8.59 µM (inactive) | 16.9 µM (inactive) | 31.1 µM (inactive) | 33 µM (inactive) | – | – | – | –
8 | COc1ccc2nc3ccc(OC)cc3c([S+]([O-])Cc3ccc([N+](=O)[O-])cc3)c2c1 (stereo not given) | 22.9 µM (inactive) | 1.95 µM (inactive) | 21.3 µM (inactive) | 2.61 µM (inactive) | 2.58 µM (inactive) | 2.11 µM (inactive) | 25.8 µM (inactive) | 5.04 µM (inactive) | 19.3 µM (inactive) | 3.9 µM (inactive) | 22.1 µM (inactive) | 2.37 µM (inactive) | 15.2 µM (inactive) | 9.51 µM (inactive) | 1.83 µM (inactive) | 3.56 µM (inactive) | – | – | – | –
9 | CC1CCCC(C(O)CC2CC(=O)NC(=O)C2)C1O (stereo not given) | > 100 µM (inactive) | > 100 µM (inactive) | > 100 µM (inactive) | > 100 µM (inactive) | > 100 µM (inactive) | > 100 µM (inactive) | > 100 µM (inactive) | > 100 µM (inactive) | > 100 µM (inactive) | > 100 µM (inactive) | > 100 µM (inactive) | > 100 µM (inactive) | > 100 µM (inactive) | > 100 µM (inactive) | > 100 µM (inactive) | > 100 µM (inactive) | – | – | – | –
10 | CN(C)C(=S)/N=c1\ss/c(=N\C(=S)N(C)C)n1-c1cccc(Cl)c1 | > 100 µM (inactive) | – | > 100 µM (inactive) | > 100 µM (inactive) | – | > 100 µM (inactive) | > 100 µM (inactive) | 79.6 µM (inactive) | 36.6 µM (inactive) | > 100 µM (inactive) | > 100 µM (inactive) | > 100 µM (inactive) | > 100 µM (inactive) | > 100 µM (inactive) | > 100 µM (inactive) | > 100 µM (inactive) | > 100 µM (inactive) | – | – | –
11 | O=C(C#Cc1ccccc1)N1c2ccccc2CC1c1c[nH]c2ccccc12 (stereo not given) | 9.79 µM (inactive) | – | 30.3 µM (inactive) | 13 µM (inactive) | – | 4.63 µM (inactive) | 18.6 µM (inactive) | 4.48 µM (inactive) | 11.7 µM (inactive) | 19.1 µM (inactive) | – | 14.9 µM (inactive) | 7.82 µM (inactive) | 26.3 µM (inactive) | 9.02 µM (inactive) | 10.7 µM (inactive) | 13 µM (inactive) | – | 16.1 µM (inactive) | –
12 | COc1ccccc1NC(=O)C1=C(C)NC(C)=C(C(=O)Nc2ccccc2OC)C1c1cccc2c1OCO2 | > 100 µM (inactive) | – | 91.8 µM (inactive) | 33 µM (inactive) | – | 34.6 µM (inactive) | 62.7 µM (inactive) | – | 14.1 µM (inactive) | > 100 µM (inactive) | > 100 µM (inactive) | > 100 µM (inactive) | > 100 µM (inactive) | > 100 µM (inactive) | 20.7 µM (inactive) | 51.1 µM (inactive) | – | > 100 µM (inactive) | > 100 µM (inactive) | –
13 | COc1ccc2c3c([nH]c(=O)c2c1C(=O)O)-c1ccccc1CC3 | 65.8 µM (inactive) | – | > 100 µM (inactive) | > 100 µM (inactive) | – | > 100 µM (inactive) | > 100 µM (inactive) | > 100 µM (inactive) | > 100 µM (inactive) | – | > 100 µM (inactive) | > 100 µM (inactive) | – | > 100 µM (inactive) | > 100 µM (inactive) | > 100 µM (inactive) | 79.1 µM (inactive) | – | – | > 100 µM (inactive)
14 | O=C1Nc2cccc3ncn(c23)C2=C1CCCC2 | – | – | > 100 µM (inactive) | > 100 µM (inactive) | – | > 100 µM (inactive) | > 100 µM (inactive) | > 100 µM (inactive) | – | > 100 µM (inactive) | > 100 µM (inactive) | > 100 µM (inactive) | > 100 µM (inactive) | – | > 100 µM (inactive) | > 100 µM (inactive) | > 100 µM (inactive) | 4.98 µM (inactive) | > 100 µM (inactive) | –
15 | CC1=CC2C(C=C1)S(=O)(=O)N1CC21c1ccccc1 (stereo not given) | – | – | > 100 µM (inactive) | > 100 µM (inactive) | – | > 100 µM (inactive) | > 100 µM (inactive) | – | > 100 µM (inactive) | > 100 µM (inactive) | > 100 µM (inactive) | > 100 µM (inactive) | 64.6 µM (inactive) | – | – | 69.2 µM (inactive) | > 100 µM (inactive) | 54 µM (inactive) | > 100 µM (inactive) | –
16 | Sc1nnc(C23CC4CC(CC(C4)C2)C3)n1-c1ccc(Cl)cc1 | 23.3 µM (inactive) | 17.5 µM (inactive) | 27.2 µM (inactive) | 8.89 µM (inactive) | 20.1 µM (inactive) | 4.36 µM (inactive) | 8.34 µM (inactive) | 14.2 µM (inactive) | 22.3 µM (inactive) | 22.5 µM (inactive) | 11.6 µM (inactive) | 13.5 µM (inactive) | 8.26 µM (inactive) | 16.9 µM (inactive) | 8.41 µM (inactive) | 9.59 µM (inactive) | – | – | – | –
17 | O=c1[nH]cnc2c(C3OC(CO)C(O)C3O)c[nH]c12 (stereo not given) | > 100 µM (inactive) | > 100 µM (inactive) | > 100 µM (inactive) | > 100 µM (inactive) | > 100 µM (inactive) | > 100 µM (inactive) | > 100 µM (inactive) | > 100 µM (inactive) | > 100 µM (inactive) | > 100 µM (inactive) | > 100 µM (inactive) | > 100 µM (inactive) | > 100 µM (inactive) | > 100 µM (inactive) | > 100 µM (inactive) | > 100 µM (inactive) | – | – | – | –
18 | [O-][n+]1ccc(NO)c2ccccc21 | 1.87 µM (inactive) | 1.67 µM (inactive) | 2.34 µM (inactive) | 0.297 µM (active) | 1.5 µM (inactive) | 0.492 µM (active) | 1.6 µM (inactive) | 0.592 µM (active) | 0.516 µM (active) | 7.36 µM (inactive) | 0.565 µM (active) | 6.5 µM (inactive) | 1.22 µM (inactive) | 1.9 µM (inactive) | 0.6 µM (active) | 2 µM (inactive) | – | – | – | –
